“And” between values parts separate entries of the source, which are not always exact repeats. Equal entries are not always repeated. Structures can show the parent of a compound that is named as a salt. Where two headings read alike, the source gives them in different places.
Columns and labels:
[1] = biological target: T1, μ receptor (Rattus norvegicus, UniProt P33535); details: for Affinity for the μ receptor compared with ODMT and racemic tramadol: comparison in words of Table 1 values
[2] = biological target: T2, κ receptor (Cavia porcellus, UniProt P41144); experiment: κ opioid receptor binding, [3H]U 69593; details: guinea-pig cerebellum, [3H]U 69593 0.7 nM, 80 minutes/22° C.
T2 construct: Following incubation, the membranes were rapidly filtered under vacuum through glass fiber filters; from tissue
T2 sequence (P41144 whole entry): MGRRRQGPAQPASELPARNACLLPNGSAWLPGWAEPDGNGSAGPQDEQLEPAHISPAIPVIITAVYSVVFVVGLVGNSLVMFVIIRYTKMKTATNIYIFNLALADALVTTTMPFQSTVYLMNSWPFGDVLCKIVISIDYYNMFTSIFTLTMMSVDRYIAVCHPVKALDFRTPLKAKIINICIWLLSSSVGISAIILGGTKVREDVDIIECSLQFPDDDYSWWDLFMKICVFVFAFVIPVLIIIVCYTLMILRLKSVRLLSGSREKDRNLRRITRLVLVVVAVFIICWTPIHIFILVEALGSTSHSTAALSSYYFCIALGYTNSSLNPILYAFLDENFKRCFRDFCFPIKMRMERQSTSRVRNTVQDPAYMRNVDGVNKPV

[3] = system: 5-HT uptake; experiment: Functional monoamine uptake: 5-HT uptake, rat brain synaptosomes; type: biochemical; details: for IC50: rat brain synaptosomes, [3H]5-HT, 15 min./37° C.; for Blocking 5-HT uptake compared with racemic tramadol and ODMT: comparison in words of Table 1 values
[4] = system: NE uptake; type: biochemical, Rat; details: for IC50: read-out: IC50, functional monoamine uptake, NE
[5] = biological target: T1, μ receptor; experiment: biochemical; details: IC50, opioid binding, rat cerebral cortex, [3H]DAMGO 1 nM, 60 minutes/22° C.
[6] = biological target: T3, δ receptor (Cavia porcellus, UniProt A0A286XTF2); experiment: δ opioid receptor binding, [3H]DPDPE; parameters: species or system Guinea-pig
T3 construct: Following incubation, the membranes were rapidly filtered under vacuum through glass fiber filters; from tissue
T3 sequence (A0A286XTF2 1-366): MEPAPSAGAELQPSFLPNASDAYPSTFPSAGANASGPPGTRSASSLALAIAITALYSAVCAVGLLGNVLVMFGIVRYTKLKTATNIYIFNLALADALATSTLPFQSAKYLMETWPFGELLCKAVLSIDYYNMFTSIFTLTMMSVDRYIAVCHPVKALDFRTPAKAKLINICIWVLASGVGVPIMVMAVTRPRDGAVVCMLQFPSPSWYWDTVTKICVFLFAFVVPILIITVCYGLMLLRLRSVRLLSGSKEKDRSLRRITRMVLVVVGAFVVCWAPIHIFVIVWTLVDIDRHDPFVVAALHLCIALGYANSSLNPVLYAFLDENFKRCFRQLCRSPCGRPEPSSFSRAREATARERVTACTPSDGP

[7] = system: DA uptake; experiment: Functional monoamine uptake: DA uptake, rat corpora striatum synaptosomes; type: biochemical; details: [3H]DA, 15 min./37° C.
Description: Radioactivity was determined with a scintillation counter (Topcount, Packard) using a liquid scintillation cocktail (Microscint 0, Packard).
These parameters were obtained by Hill equation curve fitting.

[8] = rat hypothalamus, [3H]NE, 20 min./37° C.

T1 sequence (P33535 whole entry): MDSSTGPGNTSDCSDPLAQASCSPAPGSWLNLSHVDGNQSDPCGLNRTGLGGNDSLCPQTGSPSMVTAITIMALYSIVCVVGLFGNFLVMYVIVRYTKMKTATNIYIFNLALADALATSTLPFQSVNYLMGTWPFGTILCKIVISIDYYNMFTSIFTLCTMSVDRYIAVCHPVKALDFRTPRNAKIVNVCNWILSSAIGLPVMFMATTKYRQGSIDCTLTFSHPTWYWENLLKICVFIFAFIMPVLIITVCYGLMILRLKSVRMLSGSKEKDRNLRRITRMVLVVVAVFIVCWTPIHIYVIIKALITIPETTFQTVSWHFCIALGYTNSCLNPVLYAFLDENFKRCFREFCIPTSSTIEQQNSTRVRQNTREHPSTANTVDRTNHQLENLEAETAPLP

Row | Compound | IC50 [2] | IC50 [3] | IC50 [4, 8] | IC50 [5] | IC50 [6] | IC50 [4] | other results
1 | COC1(c2cccc(O)c2)CCCCC1CN(C)C (racemic) [(R,R/S,S)-ODMOMT, (+/−)-cis-Desmethylmethyltramadol] | 789 nM | 2600 nM | 120 nM | 56 nM | 4920 nM | – | Affinity for the μ receptor compared with ODMT and racemic tramadol [1]: comparable to the corresponding enantiomer/racemate of ODMT, and much greater than that of racemic tramadol; Blocking NE uptake compared with racemic tramadol or (S,S)-ODMT [4]: more effective at blocking NE uptake than racemic tramadol or (S,S)-ODMT
2 | CN(C)CC1CCCCC1(O)c1cccc(O)c1 (racemic) [(R,R/S,S)-ODMT, O-desmethyltramadol, reference compound] | 3150 nM | 4000 nM | – | – | 7710 nM | – | –
3 | COc1cccc(C2(OC)CCCCC2CN(C)C)c1 (racemic) [(R,R/S,S)-OMT, O-Methyltramadol] | – | 550 nM | – | 7870 nM | – | 29 nM | Blocking 5-HT uptake compared with racemic tramadol and ODMT [3]: more effective at blocking at 5-HT uptake than racemic tramadol, (R,R)- or (S,S)-ODMT or racemic ODMT; Blocking NE uptake compared with racemic tramadol or (S,S)-ODMT [4]: more effective at blocking NE uptake than racemic tramadol or (S,S)-ODMT
4 | COc1cccc(C2(O)CCCCC2CN(C)C)c1 (racemic) [(R,R/S,S)-Tramadol, reference compound] | – | – | – | 8270 nM and 7640 nM | – | – | –
5 | COc1cccc([C@@]2(OC)CCCC[C@H]2CN(C)C)c1.O=C(O)/C=C/C(=O)O (relative stereo) [(R,S/S,R)-OMT, (+/−)-trans-O-Methyltramadol Fumaric Acid] | – | 290 nM | 560 nM | – | – | – | IC50 ([1]; read-out: IC50, opioid binding, μ, rat cerebral cortex, [3H]DAMGO 1 nM, 60 minutes/22° C.): 3290 nM; Blocking 5-HT uptake compared with racemic tramadol and ODMT [3]: more effective at blocking at 5-HT uptake than racemic tramadol, (R,R)- or (S,S)-ODMT or racemic ODMT; IC50 [7]: 7600 nM
6 | CN(C)CC1CCCCC1(O)c1cccc(O)c1 (single isomer, unassigned) [(R,R)-ODMT, O-desmethyltramadol, reference compound] | 1610 nM | 3300 nM | – | – | 4530 nM | – | –
7 | CN(C)CC1CCCCC1(O)c1cccc(O)c1 (single isomer, unassigned) [(S,S)-ODMT, HCl, reference compound] | – | – | 7100 nM | – | – | – | IC50 ([3]; HCl): 4400 nM
8 | COC1(c2cccc(O)c2)CCCCC1CN(C)C [(R,R)-ODMOMT, (1R,2R)-(+)-Desmethylmethyltramadol] | 427 nM | 2100 nM | 6800 nM | 30 nM | 2850 nM | – | Affinity for the μ receptor compared with ODMT and racemic tramadol [1]: comparable to the corresponding enantiomer/racemate of ODMT, and much greater than that of racemic tramadol
9 | COc1cccc(C2(OC)CCCCC2CN(C)C)c1 [(R,R)-OMT, (R,R)-(+)-O-Methyltramadol] | – | 650 nM | – | 7670 nM | – | 4000 nM | Blocking 5-HT uptake compared with racemic tramadol and ODMT [3]: more effective at blocking at 5-HT uptake than racemic tramadol, (R,R)- or (S,S)-ODMT or racemic ODMT
10 | CO[C@@]1(c2cccc(O)c2)CCCC[C@H]1CN(C)C [(S,S)-ODMOMT, (1S,2S)-(−)-Desmethylmethyltramadol] | 2440 nM | 5000 nM | 51 nM | 566 nM | – | – | Affinity for the μ receptor compared with ODMT and racemic tramadol [1]: comparable to the corresponding enantiomer/racemate of ODMT, and much greater than that of racemic tramadol; Blocking NE uptake compared with racemic tramadol or (S,S)-ODMT [4]: more effective at blocking NE uptake than racemic tramadol or (S,S)-ODMT
11 | CNCCCC1c2ccccc2C=Cc2ccccc21 [Protriptyline, reference compound] | – | – | – | – | – | 40 nM and 26 nM | –
12 | (+/−)-trans-O-Methyldidesmethyltramadol HCl [(R,S/S,R)-NDMOMT] | – | 16000 nM | – | – | – | – | –
13 | O-methyl tramadol [(S,S)-OMT] | – | – | – | – | – | 16000 nM | –

Reference: US6780891B2, “Tramadol analogs and uses thereof” (Sepracor Inc., priority 2001, dated 2004)
